What was measured:
Type in all cases: cell-based, human
[1] = system: bioprinted liver tissue construct; experiment: Steatosis induction in bioprinted liver tissue constructs (H&E, PLIN-5, Oil Red O)
From the text: 3D bioprinted liver tissues comprised of cryopreserved primary human hepatocytes (Life Technologies, Carlsbad, CA, USA), hepatic stellate cells (ScienCell; Carlsbad, CA, USA), and HUVEC cells (Becton Dickinson; Tewksbury, MA, USA) were bioprinted directly into 24-well Transwell plates (FIG. 20A) using the Organovo NovoGen Bioprinter Instrument (Organovo, San Diego, CA, USA).
Briefly, hepatic stellate cells and HUVEC cells were propagated per the manufacturer's instructions prior to tissue fabrication. Cryopreserved hepatocytes were thawed and prepared for use per the manufacturer's instructions. Separate high density bioinks comprising parenchymal cells (100% cellular paste, generated via compaction having hepatocyte cells) or nonparenchymal cells (150e6 cells/mL of endothelial cells and hepatic stellate cells formulated in hydrogel) were prepared and loaded into separate heads of the NovoGen Bioprinter Instrument within a standard biosafety cabinet. A computer script was then executed to deposit the bioinks in a two-compartment planar geometry (2 mm^2×0.5 mm) onto the membranes of standard 24-well 0.4 μm transwell culture inserts (Corning, Tewksbury, MA USA) via continuous deposition microextrusion with the non-parenchymal cells comprising the border regions of each compartment and the parenchymal cells filling each compartment. Following fabrication, the tissues were fed daily with 600 μL of 3D Liver Tissue Media, consisting of DMEM supplemented with Primary Hepatocyte Maintenance Supplements (Life Technologies, Carlsbad, CA, USA) and EGM-2 (Lonza, Basel, Switzerland), and incubated at 37° C. under humidified atmospheric conditions supplemented with 5% CO2. Tissues were allowed to mature in culture for at least three days following fabrication prior to initiation of experimentation, and were substantially free of pre-formed scaffold at the time of use. For the one month timecourse, tissues were fed daily for a total of 28 days post-fabrication.
The bioprinted liver tissue construct of Example 6 was treated with nutrient-mediated accumulation to induce a steatosis phenotype. Specifically, to induce steatosis, a first liver tissue construct was treated with palmitic acid (PA) of varying concentrations (200 uM PA or 500 uM PA) daily for 3 weeks in the presence of high glucose media (DMEM-HG). A second liver tissue construct was treated with a 5% and 10% lipid mix of oleic acid (OC) to palmitic acid (PA) at a ratio of 2:1 daily for 3 weeks in the presence of high glucose media (DMEM-HG). Optionally, insulin or genipin (1 uM or 5 uM) can be used to stimulate fatty acid uptake into hepatocytes and enhance the fatty phenotype. […]
The technical challenge is to make a 3D, bioprinted liver tissue construct having the disorder without adversely affecting hepatocyte function or tissue health (albumin, LOH activity, ALT), which most closely recapitulates the benign nature of steatosis commonly observed in clinical steatosis. Tissue health were assessed at 7 day intervals using biochemical assays that measure hepatocellular function (i.e., albumin) and injury (i.e., LOH and ALT) with n≥5 per treatment group. Greater than 5% fatty infiltrate into hepatocytes is considered steatotic; therefore, morphometric and biochemical assays were conducted to quantify hepatic lipid content. Tissue morphology and extracellular matrix (ECM) deposition were assessed using H&E and Trichrome staining, respectively, at 7 day intervals. […]

[2] = system: immune competent bioprinted liver tissue constructs; experiment: NASH induction in bioprinted liver tissue constructs, histology (H&E, trichrome, desmin/α-SMA, CK18)
Protocol: Kupffer cells (KCs) were added to the parenchymal region in the bioprinted liver tissue construct of Example 6.
Separate high density bioinks comprising parenchymal cells (100% cellular paste, generated via compaction having human hepatocyte cells and human Kupffer cells) or nonparenchymal cells (150e6 cells/mL of endothelial cells and hepatic stellate cells formulated in hydrogel) were prepared and loaded into separate heads of the NovoGen Bioprinter™ Instrument within a standard biosafety cabinet. A computer script was then executed to deposit the bioinks in a two-compartment planar geometry (2 mm^2×0.5 mm) onto the membranes of standard 24-well 0.4 μm transwell culture inserts (Corning, Tewksbury, MA USA) via continuous deposition microextrusion with the non-parenchymal cells comprising the border regions of each compartment and the parenchymal cells filling each compartment.
Here, the liver tissue construct having KCs was treated with 100 μg/ml of LPS and 500 uM palmitic acid daily for 21 days. LPS was used to activate the KCs in order to initiate inflammation. In turn, activated KCs release factors that activate hepatic stellate cells, which initiate fibrosis. […] Untreated tissues with and without KCs were used as controls.

[3] = system: bioprinted liver tissue constructs; experiment: Caspase cleaved CK18 fragments (apoptosis) in bioprinted liver tissue constructs
[4] = system: bioprinted hepatic stellate cell tissues; experiment: Stimulation of bioprinted hepatic stellate cell tissues with TGF-β1
Protocol: Cylindrical bio-ink comprising relevant heterogeneous (i.e., polytypic) cell populations were prepared. Physiologically-relevant populations (e.g., hepatic stellate cells (hSC) and human aortic endothelial cells (EC)) of cells were combined at specific ratios to generate proper bio-ink. Cells were maintained and propagated under standard laboratory conditions and cells were cultured in media either purchased from the same vendor as the cells, or media comprising components typically found in the primary literature to be conducive to standard cell culture practices for those particular cell types. Cell processing for bio-ink preparation was as follows: briefly, cells were liberated from standard tissue culture plastic by washing with cation-free phosphate buffered saline (PBS) and then exposed to 0.1-0.05% trypsin (Invitrogen). Liberated cells were then washed in serum-containing media, collected, counted, and combined in an appropriate ratio for the stimulation assay or experiment being conducted, and pelleted by centrifugation. Supernatant was then removed and the cell pellet was aspirated into a glass microcapillary, which was then submerged in complete media for approximately 15 to 20 minutes. This cylindrical bio-ink structure was then extruded into a non cell-adherent hydrogel mold, containing linear channels and held for 2 to 18 hours. Cylindrical bio-ink containing hSC: EC was then used to fabricate bioprinted tissue constructs and maintained and/or matured in a humidified chamber. Tissue segments were fabricated with initial dimensions of 1.25 mm×8 mm×0.25 mm (W×L×H). […]
The bioprinted neotissues were then submerged in serum-containing complete cell culture media and placed in a standard humidified chamber, supplemented with 5% CO2 for maturation. […] The bioprinted tissues were evaluated for characteristics such as, but not limited to for tissue morphology, cell organization, extracellular matrix production, cell proliferation, cell viability, and construct integrity. […]

[5] = system: bioprinted liver tissue construct with Kupffer cells; experiment: Inflammatory cytokine release from bioprinted liver tissue constructs; settings: co-treatment of LPS at 1 ug/mL with NASH induction, 14 days (FIG. 33)
Protocol: Tissue health were assessed at 7 day intervals using biochemical assays on spent media that measure hepatocellular function as outlined in Aim 1 (n≥5/group). Histological endpoints used to assess tissue morphology and composition (H&E, CD31, Desmin, E-cadherin, Albumin), ECM deposition (trichrome), hepatic stellate cell activation (desmin, a-smooth muscle actin ratio), lipid vacuoles (perilipin) and lipid content (Oil red 0) were measured at weekly intervals. In order to determine baseline cytokine production in response to lipid treatment, inflammatory cytokine release were measured at 7 day intervals via chemiluminescence with the V-Plex Pro-Inflammatory Panel (Meso Scale Discovery, Rockville, MD), which measures TNF-α, IL-113, IL-6, IL-8, IL-4, IL-2, IL-13, IL-12p70, IL-10, and interferon-y (IFN-y).

bioprinted liver tissues = experiment: Drug safety: alanine transferase (ALT) in culture medium of bioprinted liver tissues; settings: diseased (NASH-induced with 12.5 mM fructose and 500 uM PA) tissue treated with OCA versus non-diseased tissue
Protocol: The assessment of drug safety was also investigated using the bioprinted liver tissue constructs. Non-diseased (vehicle-treated) or diseased (NASH-induced with 12.5 mM fructose and 500 uM PA) bioprinted liver tissues were treated with OCA, followed by measurement of alanine transferase (ALT) in the culture medium, a liver enzyme elevated with hepatocellular injury. […] Significance was determined by One-way ANOVA with Dunnets Multiple Comparisons Test, with the increase in ALT levels for diseased tissue following OCA treatment having a P<0.0001 as compared to diseased tissue without OCA treatment. This provides a proof of concept for application of the NASH model in assessment of differential toxicity.

CCCCCCCCCCCCCCCC(=O)O [palmitic acid]
steatotic phenotype (incidence and size of lipid droplets, PLIN 5 staining) ([1]; 200 μM and 500 μM, daily for 21 days, vs untreated controls): induces a steatotic phenotype
lipid accumulation fold change (Oil Red O, Image J) ([1]; 21 days, 500 μM vs 200 μM (FIG. 25B)): greater accumulation of lipid droplets
lipid accumulation (Oil Red O, morphometric quantification) ([1]; 21 days, 200 and 500 uM, vs controls (FIG. 22)): significant dose-dependent increase in lipid accumulation
fibrosis (TCM) ([2]; 7 days, 1 mM (FIG. 28A)): increased incidence
putative ballooned hepatocytes (H&E) ([2]; 7 days, 1 mM (FIG. 28A)): increased incidence of putative ballooned hepatocytes
caspase cleaved cytokine (CK) 18 fragments ([3]; 7 days, 1 mM, vs all other FFA treatments and untreated controls (FIG. 28B)): significantly higher levels
cytotoxicity ([3]; FIG. 28(B)): increased cytotoxicity

TGF-β1: cytokine used to elicit a tissue-specific response
cell density (Trichrome) ([4]; 0-50 ng/mL (FIG. 15)): dramatic decreases in cell density
collagen deposition and construct size (Trichrome) ([4]; 0-50 ng/mL (FIG. 15)): increases in collagen deposition and construct size
tissue outgrowth formation (gross observation) ([4]; increasing concentrations 0, 1, 10, 50 ng/mL (FIG. 15)): increases in tissue outgrowth formation

O=C(CO)[C@@H](O)[C@H](O)[C@H](O)CO [fructose]
fibrosis (TCM) ([2]; 14 days, fructose 20 mM, OA or OA:PA 0.5 mM, vs controls (FIG. 32)): increased fibrosis
fibrosis (TCM) ([2]; 21 days, fructose 12.5 mM, PA 0.5 mM, vs controls (FIG. 31)): increased fibrosis

COC(=O)C1=CO[C@@H](O)[C@@H]2C(CO)=CC[C@H]12 [Genipin]
lipid accumulation fold change (Oil Red O, Image J) ([1]; 21 days, 5 μM Genipin added to 500 μM PA, vs 500 μM PA alone): did not further increase lipid accumulation

lipopolysaccharide [LPS]
putative hepatocellular ballooning ([2]; 21 days of PA and fructose (12.5 mM) with constitutive 10 ug/mL treatment, vs controls (FIG. 43)): also observed
fibrosis and hepatocellular ballooning ([2]; 21 days of PA and fructose (12.5 mM) with constitutive 100 ug/mL LPS (FIG. 43)): high degree of fibrosis with putative hepatocellular ballooning
cytokine levels (IL-10, IL-1β, TNF-α, IL-6) [5]: significantly increased above NASH induction only

CC[C@H]1[C@@H](O)[C@@H]2[C@H](CC[C@]3(C)[C@@H]([C@H](C)CCC(=O)O)CC[C@@H]23)[C@@]2(C)CC[C@@H](O)C[C@@H]12 [OCA, Obeticholic Acid]
alanine transferase (ALT) in the culture medium (bioprinted liver tissues): increased ALT

CCCCCCCC/C=C\CCCCCCCC(=O)O [OA, Oleic Acid]
lipid droplet (LD) size ([1]; 14 days of treatment (FIG. 27)): larger sizes of LD's
fibrosis (TCM) ([2]; 7 days, 1 mM (FIG. 28A)): less fibrosis
macrovesicular steatosis (H&E) ([2]; 7 days, 1 mM (FIG. 28A)): increased incidence of macrovesicular steatosis

Source: patent US12252712B2, “Use of engineered liver tissue constructs for modeling liver disorders” (Organovo, Inc., priority 2017, dated 2025)
